One assay concerns the target T1, MST2 (Homo sapiens, UniProt Q13188).
T1 construct: gene STK3
T1 sequence (Q13188 1-491): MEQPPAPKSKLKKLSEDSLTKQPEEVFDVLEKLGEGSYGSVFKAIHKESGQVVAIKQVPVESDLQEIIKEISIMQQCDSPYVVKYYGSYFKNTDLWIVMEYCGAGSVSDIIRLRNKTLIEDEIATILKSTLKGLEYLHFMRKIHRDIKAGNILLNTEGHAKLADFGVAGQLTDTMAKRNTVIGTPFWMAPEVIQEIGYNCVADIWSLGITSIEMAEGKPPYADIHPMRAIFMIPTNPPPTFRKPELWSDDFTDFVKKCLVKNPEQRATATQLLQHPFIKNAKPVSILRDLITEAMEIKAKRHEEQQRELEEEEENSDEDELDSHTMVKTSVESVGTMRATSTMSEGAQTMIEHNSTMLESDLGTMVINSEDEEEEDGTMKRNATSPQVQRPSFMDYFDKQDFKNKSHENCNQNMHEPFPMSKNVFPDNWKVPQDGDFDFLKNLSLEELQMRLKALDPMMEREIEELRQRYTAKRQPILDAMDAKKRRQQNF
Nature of the assay: biochemical kinase assay; KD also determined (Fig. 1c, d); KINOMEscan binding.

The target in assay [1] is T2, MST1 (mammalian sterile 20-like kinase 1) (Homo sapiens, UniProt Q13043).
T2 construct: gene STK4
T2 sequence (Q13043 whole entry): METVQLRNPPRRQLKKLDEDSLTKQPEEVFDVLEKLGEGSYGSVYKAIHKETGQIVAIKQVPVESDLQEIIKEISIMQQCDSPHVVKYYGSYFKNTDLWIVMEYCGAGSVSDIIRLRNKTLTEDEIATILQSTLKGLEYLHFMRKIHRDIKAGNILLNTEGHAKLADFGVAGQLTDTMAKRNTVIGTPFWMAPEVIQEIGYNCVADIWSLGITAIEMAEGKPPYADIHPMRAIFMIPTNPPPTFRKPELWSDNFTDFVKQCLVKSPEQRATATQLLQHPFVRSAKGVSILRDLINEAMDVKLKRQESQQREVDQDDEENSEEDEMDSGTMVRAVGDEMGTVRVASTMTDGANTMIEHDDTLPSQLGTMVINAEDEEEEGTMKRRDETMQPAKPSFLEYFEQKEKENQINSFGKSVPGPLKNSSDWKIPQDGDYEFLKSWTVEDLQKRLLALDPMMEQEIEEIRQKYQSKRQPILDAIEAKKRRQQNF

Consider `CN1C(=O)C(c2c(F)cccc2F)N(C)c2nc(Nc3ccc(S(N)(=O)=O)cc3)ncc21` (centres unmarked) [IHMT-MST1-39], for which the IC50 at MST2 is 109 nM; in assay [1] it was 42 nM.
